Assay results reported in patent US10688093B2, “Methods, compositions, and uses of novel Fyn kinase inhibitors” (priority 2015, dated 2020).

Biological target: full-length recombinant human FYN A (Homo sapiens (Human), UniProt P06241)
Assay: ADP-Glo Kinase Assay of FYN kinase inhibition
Assay type: biochemical
Conditions: primary screen, initial compounds
Excerpt: The chemical library was comprised of the SoftFocus ATP-competitive hinge binding compounds described by Harris, C. J., Hill, R. D., Sheppard, D. W., et al., The Design and Application of Target-Focused Compound Libraries. Combinatorial Chemistry and High Throughput Screening 14:521-31 (2011). The specific pharmacore chemistries included SFK52 comprising 6-[R2]-3-[R1]imidazo[1,2-b] pyridazine compounds, SFK33 comprising N-(3-[R2] imidazo [1,2-b] pyridazin-6-yl) [R1] amine compounds, SFK49 comprising N-(5-[R2] imidazo [2,1-b][1,3,4] thiadiazol-2-yl)[R1]-amine compounds, SFK 40 comprising 5-[R2]-3-[R1] pyridin-2-amine compounds, SFK43 comprising 6-[R2]-3-[R1]imidazo[1,2-a]pyrazine compounds, and SFK63. The chemical structures of the initial 600 potential kinase inhibitors are presented in Table 3, with those chosen for additional analysis presented in Table 4. Comparison of the compounds presented in Table 1 and those of Tables 2, 3 and 4, illustrate the novelty of the chemical structures claimed herein.
FYN kinase (10 micrograms) was from the FYN A Kinase Enzyme System (V3571, Promega UK Ltd.), a full-length recombinant human FYN A containing an N-terminal GST tag of about 85 kDa, expressed by bacullovirus in […] insect cells, supplied at a concentration of 0.1 microgram/microliter in 5×reaction buffer. The FYN substrate, a 12 amino acid peptide of the sequence […], containing a single tyrosine phosphorylation site, was custom synthesized (Peptide Synthetics, Peptide Protein Research, Fareham, UK) and supplied as a 4 mg/ml aqueous solution. All other reagents were obtained from Sigma (Sigma-Aldrich, Gillingham, Dorset, UK), with the exception of UltraPure ATP (V9102, Promega UK Ltd.) and the ATP-competitive broad spectrum protein kinase inhibitor staurosporine (569397, Merck Millipore, Watford, Hertfordshire, UK), or as otherwise indicated.
The assay procedure determines the IC50 of each potential FYN kinase inhibitor by measuring the enzyme catalyzed ATP-dependent phosphorylation of the FYN substrate peptide. The ADP-Glo™ Kinase Assay is specifically designed to quantify kinase activity by measuring the ADP produced in the reaction The reaction buffer comprises 40 mM Tris.HCl (pH 7.5), 20 mM MgCl2, 0.1 mg/ml BSA and 5 microM DTT. Individual compounds within the chemical library were dissolved in DMSO at known concentrations. Briefly, 2.5 microliters of reaction buffer containing 3 picograms of FYN kinase and serial dilutions of each potential FYN kinase inhibitor (9 3-fold dilutions of a 10 micromolar top sample) are placed into each well of a 384 well microtiter plate and incubated at room temperature for 30 minutes. An additional 2.5 microliters of reaction buffer containing 100 picograms of the FYN substrate and 12.5 picomoles of ATP are then added to each well and the reaction carried out for 90 minutes at room temperature. The reactions are terminated by addition of 5 microliters of the ADP-Glo™ Reagent component of the ADP-Glo™ Kinase Assay kit to each well. The ADP-Glo™ Reagent comprises an ATP-dependent adenylate cyclase, an inorganic pyrophosphatase and an excess of staurosporine. The adenylate cyclase converts the remaining ATP to cAMP and pyrophospahte, the pyrophosphatase converts the pyrophosphate to phosphate and the staurosporine inhibits the activity of the FYN kinase, the net effect is to remove all residual ATP while preserving the ADP produced by FYN kinase. The terminated reactions are incubated for 40 minutes at room temperature, prior to addition of the Kinase Detection Reagent component of the ADP-Glo™ Kinase Assay kit to each well. The Kinase Detection Reagent comprises pyruvate kinase, phosphoenol pyruvate (PEP), luciferin and luciferase. The pyruvate kinase converts PEP to pyruvate and in the process generates ATP from the residual ADP present in the terminated reaction. […]

full-length recombinant human FYN A, sequence (P06241 whole entry): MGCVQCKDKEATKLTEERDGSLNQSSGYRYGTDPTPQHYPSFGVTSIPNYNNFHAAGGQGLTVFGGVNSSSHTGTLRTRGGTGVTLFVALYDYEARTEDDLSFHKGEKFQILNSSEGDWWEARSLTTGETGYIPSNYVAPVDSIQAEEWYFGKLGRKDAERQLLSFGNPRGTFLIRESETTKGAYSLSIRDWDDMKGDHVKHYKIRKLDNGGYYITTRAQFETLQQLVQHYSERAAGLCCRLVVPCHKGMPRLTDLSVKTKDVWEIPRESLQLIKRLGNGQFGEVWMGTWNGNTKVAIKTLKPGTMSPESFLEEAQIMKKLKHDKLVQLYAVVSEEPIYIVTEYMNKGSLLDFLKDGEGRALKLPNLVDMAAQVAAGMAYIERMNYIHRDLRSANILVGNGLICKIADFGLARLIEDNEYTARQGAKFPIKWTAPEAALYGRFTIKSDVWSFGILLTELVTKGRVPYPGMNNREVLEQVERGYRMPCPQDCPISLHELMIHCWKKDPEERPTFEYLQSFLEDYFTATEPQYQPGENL

Structure (SMILES) | IC50 [µM]
CC(C)[C@@H](CO)Nc1ccc2ncc(-c3ccc4c(c3)OCO4)n2n1 [229_0254_0068, (2S)-2-[[3-(1,3-benzodioxol-5-yl)imidazo[1,2-b]pyridazin-6-yl]amino]-3-methyl-butan-1-ol] | 1.82
COc1ccc(-c2cnc3ccc(N[C@H](CO)C(C)C)nn23)cc1OC [229_0254_0079, (2S)-2-[[3-(3,4-dimethoxyphenyl)imidazo[1,2-b]pyridazin-6-yl]amino]-3-methyl-butan-1-ol] | 0.778
CC(=O)Nc1cccc(-c2cnc3ccc(N[C@H](CO)C(C)C)nn23)c1 [229_0254_0081, N-[3-[6-[[(1S)-1-(hydroxymethyl)-2-methyl-propyl]amino]imidazo[1,2-b]pyridazin-3-yl]phenyl] acetamide] | 0.801
CC(C)[C@@H](CO)Nc1ccc2ncc(-c3ccc(C#N)cc3)n2n1 [229_0254_0086, 4-[6-[[(1S)-1-(hydroxymethyl)-2-methyl-propyl]amino]imidazo[1,2-b]pyridazin-3-yl]benzonitrile] | 3.18
CC(C)[C@@H](CO)Nc1ccc2ncc(-c3ccc(N)cc3)n2n1 [229_0254_0333, (2S)-2-[[3-(4-aminophenyl)imidazo[1,2-b]pyridazin-6-yl]amino]-3-methyl-butan-1-ol] | 3.05
c1ccc(CNc2ccc3ncc(-c4ccc5c(c4)OCO5)n3n2)nc1 [229_4007_0068, 3-(1,3-benzodioxol-5-yl)-N-(2-pyridylmethyl) imidazo[1,2-b]pyridazin-6-amine] | 0.797
COc1cccc(-c2cnc3ccc(NCC4CC4)nn23)c1 [229_4051_4140, N-(cyclopropyl-methyl)-3-(3-methoxyphenyl) imidazo[1,2-b]pyridazin-6-amine] | 3.3
COc1cc(-c2cnc3ccc(NCc4ccc(C)cc4C)nn23)ccc1O [229_4319_0314, 4-[6-[(2,4-dimethylphenyl)methylamino]imidazo[1,2-b]pyridazin-3-yl]-2-methoxy-phenol] | 5.31
COc1cccc(-c2ccc3c(-c4ccc(C(=O)NCCCN(C)C)cc4)n[nH]c3n2)c1F [267_0180_7936, N-[3-(dimethylamino)propyl]-4-[6-(2-fluoro-3-methoxy-phenyl)-1H-pyrazolo[3,4-b]pyridin-3-yl]benzamide] | 7.34
COc1ccc(Nc2ccn3ncc(-c4cccc(O)c4)c3n2)cn1 [294_0042_0284, 3-[5-[(6-methoxy-3-pyridyl)amino]pyrazolo[1,5-a]pyrimidin-3-yl]phenol] | 3.39
COc1cccc(-c2cnn3ccc(Nc4ccc(OC)nc4)nc23)c1 [294_0042_4140, 3-(3-methoxyphenyl)-N-(6-methoxy-3-pyridyl)pyrazolo [1,5-a]pyrimidin-5-amine] | 5.31
COc1ccc(Nc2ccn3ncc(-c4cccc(C(C)=O)c4)c3n2)cn1 [294_0042_4145, 1-[3-[5-[(6-methoxy-3-pyridyl)amino]pyrazolo[1,5-a]pyrimidin-3-yl]phenyl] ethanone] | 1.64
COc1cncc(-c2cnn3ccc(Nc4ccc(N5CCOCC5)cc4)nc23)c1 [294_0088_0196, 3-(5-methoxy-3-pyridyl)-N-(4-morpholino-phenyl)pyrazolo [1,5-a]pyrimidin-5-amine] | 2.25
Cc1ccc(Nc2ccn3ncc(-c4cccc(O)c4)c3n2)cc1NS(C)(=O)=O [294_0123_0284, N-[5-[[3-(3-hydroxyphenyl)pyrazolo[1,5-a]pyrimidin-5-yl]amino]-2-methyl-phenyl]methane-sulfonamide] | 3.17
Nc1cccc(-c2cnn3ccc(NCc4cccnc4)nc23)c1 [294_4003_0005, 3-(3-amino-phenyl)-N-(3-pyridylmethyl) pyrazolo[1,5-a]pyrimidin-5-amine] | 2.51
COc1ccc(-c2cnn3ccc(NCc4cccnc4)nc23)cc1OC [294_4003_0079, 3-(3,4-dimethoxy-phenyl)-N-(3-pyridylmethyl) pyrazolo[1,5-a]pyrimidin-5-amine] | 1.64
COc1ccccc1-c1cnn2ccc(NCc3cccnc3)nc12 [294_4003_0083, 3-(2-methoxyphenyl)-N-(3-pyridylmethyl) pyrazolo[1,5-a]pyrimidin-5-amine] | 1.22
COc1cc(-c2cnn3ccc(NCc4cccnc4)nc23)cc(OC)c1OC [294_4003_0087, N-(3-pyridylmethyl)-3-(3,4,5-trimethoxy-phenyl) pyrazolo[1,5-a]pyrimidin-5-amine] | 2.35
COc1ccc(-c2cnn3ccc(Nc4ccc(C(C)C)cc4)nc23)cc1 [294_6937_0280, N-(4-isopropylphenyl)-3-(4-methoxyphenyl) pyrazolo[1,5-a]pyrimidin-5-amine] | 4.18
COc1cc(-c2cnc(N)c(-c3cccc(N)c3)c2)cc(OC)c1OC [382_0005_0087, 3-(3-aminophenyl)-5-(3,4,5-trimethoxy-phenyl)pyridin-2-amine] | 2.97
Cc1cc(-c2cnc(N)c(-c3ccncc3)c2)cc(C)c1O [382_0069_0315, 4-[6-amino-5-(4-pyridyl)-3-pyridyl]-2,6-dimethyl-phenol] | 1.7

The next lines start with the values.

IC50 [µM] | Structure (SMILES)
0.53 | COc1cc(-c2cc(-c3ccc(OCCCN(C)C)nc3)cnc2N)cc(OC)c1OC [382_0087_0002, 5-[6-[3-(dimethylamino)propoxy]-3-pyridyl]-3-(3,4,5-trimethoxy-phenyl)pyridin-2-amine]
0.893 | COc1cc(-c2cc(-c3ccccc3)cnc2N)cc(OC)c1OC [382_0087_0061, 5-phenyl-3-(3,4,5-trimethoxy-phenyl)pyridin-2-amine]
9.01 | COc1cc(-c2cc(-c3ccccc3Oc3ccccc3)cnc2N)cc(OC)c1OC [382_0087_0063, 5-(2-phenoxyphenyl)-3-(3,4,5-trimethoxy-phenyl)pyridin-2-amine]
2.69 | COc1cc(-c2cc(-c3cc4ccccc4s3)cnc2N)cc(OC)c1OC [382_0087_0076, 5-(benzothiophen-2-yl)-3-(3,4,5-trimethoxyphenyl) pyridin-2-amine]
0.595 | COc1cc(-c2cc(-c3cccc(N(C)C)c3)cnc2N)cc(OC)c1OC [382_0087_0135, 5-[3-(dimethyl-amino)phenyl]-3-(3,4,5-trimethoxyphenyl) pyridin-2-amine]
0.485 | COc1cc(-c2cc(-c3cccc(C(=O)NCCO)c3)cnc2N)cc(OC)c1OC [382_0087_0192, 3-[6-amino-5-(3,4,5-trimethoxy-phenyl)-3-pyridyl]-N-(2-hydroxyethyl) benzamide]
0.322 | COc1cc(-c2cc(-c3ccc(N4CCN(C)CC4)cc3)cnc2N)cc(OC)c1OC [382_0087_0218, 5-[4-(4-methylpiperazin-1-yl)phenyl]-3-(3,4,5-trimethoxyphenyl)pyridin-2-amine]
2.98 | COc1ccc(-c2cnc(N)c(-c3cc(OC)c(OC)c(OC)c3)c2)cc1 [382_0087_0280, 5-(4-methoxyphenyl)-3-(3,4,5-trimethoxy-phenyl)pyridin-2-amine]
0.723 | COc1cc(-c2cc(-c3cccc(O)c3)cnc2N)cc(OC)c1OC [382_0087_0284, 3-[6-amino-5-(3,4,5-trimethoxy-phenyl)-3-pyridyl]phenol]
1.06 | COc1ccc(-c2cnc(N)c(-c3cc(OC)c(OC)c(OC)c3)c2)cn1 [382_0087_0311, 5-(6-methoxy-3-pyridyl)-3-(3,4,5-trimethoxyphenyl) pyridin-2-amine]
1.52 | COc1cc(-c2cc(-c3cccc(F)c3)cnc2N)cc(OC)c1OC [382_0087_0313, 5-(3-fluorophenyl)-3-(3,4,5-trimethoxy-phenyl)pyridin-2-amine]
0.712 | COc1cc(-c2cc(-c3cc(C)c(O)c(C)c3)cnc2N)cc(OC)c1OC [382_0087_0315, 4-[6-amino-5-(3,4,5-trimethoxyphenyl)-3-pyridyl]-2,6-dimethyl-phenol]
